Reference: article PMC5540273, “Progress towards a public chemogenomic set for protein kinases and a call for contributions” (PLoS ONE, 2017)

Tests used:
Experiment in all cases: KINOMEscan competition binding
CASK = target: T1, CASK (Homo sapiens, UniProt O14936); conditions: read-out: %Inh CASK
T1 sequence (O14936 1-926): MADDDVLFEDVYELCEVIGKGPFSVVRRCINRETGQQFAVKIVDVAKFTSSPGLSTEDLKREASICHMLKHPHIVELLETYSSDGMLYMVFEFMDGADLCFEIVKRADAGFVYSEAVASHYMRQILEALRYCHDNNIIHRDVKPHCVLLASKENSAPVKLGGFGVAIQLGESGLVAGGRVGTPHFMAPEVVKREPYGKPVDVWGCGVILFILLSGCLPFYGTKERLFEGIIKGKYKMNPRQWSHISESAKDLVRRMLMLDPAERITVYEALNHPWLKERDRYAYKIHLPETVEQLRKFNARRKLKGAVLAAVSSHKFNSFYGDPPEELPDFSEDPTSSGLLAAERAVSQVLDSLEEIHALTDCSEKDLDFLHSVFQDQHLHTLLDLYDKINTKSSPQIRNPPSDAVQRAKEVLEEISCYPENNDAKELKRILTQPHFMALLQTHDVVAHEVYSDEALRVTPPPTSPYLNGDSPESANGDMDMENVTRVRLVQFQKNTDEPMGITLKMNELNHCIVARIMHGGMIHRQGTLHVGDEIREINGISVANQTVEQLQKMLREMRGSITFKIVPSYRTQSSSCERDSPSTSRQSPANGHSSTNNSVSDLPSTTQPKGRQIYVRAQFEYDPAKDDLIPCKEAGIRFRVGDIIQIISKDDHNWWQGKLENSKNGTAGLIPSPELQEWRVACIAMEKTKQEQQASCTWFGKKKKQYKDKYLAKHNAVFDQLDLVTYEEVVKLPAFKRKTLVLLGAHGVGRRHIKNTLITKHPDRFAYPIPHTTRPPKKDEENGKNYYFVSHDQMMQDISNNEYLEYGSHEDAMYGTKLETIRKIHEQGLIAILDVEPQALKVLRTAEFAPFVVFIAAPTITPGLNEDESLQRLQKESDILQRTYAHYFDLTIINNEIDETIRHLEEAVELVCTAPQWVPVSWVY

ADCK3 = ADCK3 (Homo sapiens, UniProt Q8NI60); conditions: read-out: %Inh ADCK3
Sequence of ADCK3 (Q8NI60 163-647): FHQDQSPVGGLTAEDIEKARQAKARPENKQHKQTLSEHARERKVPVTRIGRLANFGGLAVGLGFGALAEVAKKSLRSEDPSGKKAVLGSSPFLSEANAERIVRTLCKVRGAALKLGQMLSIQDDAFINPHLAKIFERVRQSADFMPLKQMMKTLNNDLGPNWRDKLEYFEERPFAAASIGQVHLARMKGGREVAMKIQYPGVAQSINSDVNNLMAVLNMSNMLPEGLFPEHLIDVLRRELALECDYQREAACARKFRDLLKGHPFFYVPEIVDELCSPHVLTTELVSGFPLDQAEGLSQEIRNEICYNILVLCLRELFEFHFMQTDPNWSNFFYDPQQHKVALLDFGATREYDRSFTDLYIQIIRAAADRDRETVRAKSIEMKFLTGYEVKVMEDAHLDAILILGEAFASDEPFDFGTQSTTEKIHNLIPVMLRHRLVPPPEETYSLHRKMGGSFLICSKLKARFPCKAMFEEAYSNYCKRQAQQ

GRK2 = target: T2, GRK2 (Homo sapiens, UniProt P25098); conditions: read-out: %Inh GRK2
T2 sequence (P25098 1-689): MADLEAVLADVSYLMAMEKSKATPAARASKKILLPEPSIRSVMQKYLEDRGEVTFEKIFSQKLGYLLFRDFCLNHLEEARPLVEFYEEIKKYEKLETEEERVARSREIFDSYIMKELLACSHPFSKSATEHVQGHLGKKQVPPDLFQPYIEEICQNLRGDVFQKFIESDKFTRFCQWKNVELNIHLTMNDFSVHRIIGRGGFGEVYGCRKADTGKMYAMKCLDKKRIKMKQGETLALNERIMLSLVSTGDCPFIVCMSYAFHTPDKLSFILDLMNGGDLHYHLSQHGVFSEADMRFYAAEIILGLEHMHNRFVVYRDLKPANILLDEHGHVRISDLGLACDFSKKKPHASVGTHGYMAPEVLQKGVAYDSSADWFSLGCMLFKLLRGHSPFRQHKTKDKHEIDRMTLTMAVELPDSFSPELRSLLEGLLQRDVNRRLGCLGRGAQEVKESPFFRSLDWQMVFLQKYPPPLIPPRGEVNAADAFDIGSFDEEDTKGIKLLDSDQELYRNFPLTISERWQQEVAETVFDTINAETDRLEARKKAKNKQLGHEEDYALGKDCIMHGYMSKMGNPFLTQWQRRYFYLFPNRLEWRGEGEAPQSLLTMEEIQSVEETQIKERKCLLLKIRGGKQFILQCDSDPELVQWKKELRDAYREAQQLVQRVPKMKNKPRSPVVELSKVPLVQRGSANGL

LOK = LOK (Homo sapiens, UniProt O94804); conditions: read-out: %Inh LOK
Sequence of LOK (O94804 whole entry): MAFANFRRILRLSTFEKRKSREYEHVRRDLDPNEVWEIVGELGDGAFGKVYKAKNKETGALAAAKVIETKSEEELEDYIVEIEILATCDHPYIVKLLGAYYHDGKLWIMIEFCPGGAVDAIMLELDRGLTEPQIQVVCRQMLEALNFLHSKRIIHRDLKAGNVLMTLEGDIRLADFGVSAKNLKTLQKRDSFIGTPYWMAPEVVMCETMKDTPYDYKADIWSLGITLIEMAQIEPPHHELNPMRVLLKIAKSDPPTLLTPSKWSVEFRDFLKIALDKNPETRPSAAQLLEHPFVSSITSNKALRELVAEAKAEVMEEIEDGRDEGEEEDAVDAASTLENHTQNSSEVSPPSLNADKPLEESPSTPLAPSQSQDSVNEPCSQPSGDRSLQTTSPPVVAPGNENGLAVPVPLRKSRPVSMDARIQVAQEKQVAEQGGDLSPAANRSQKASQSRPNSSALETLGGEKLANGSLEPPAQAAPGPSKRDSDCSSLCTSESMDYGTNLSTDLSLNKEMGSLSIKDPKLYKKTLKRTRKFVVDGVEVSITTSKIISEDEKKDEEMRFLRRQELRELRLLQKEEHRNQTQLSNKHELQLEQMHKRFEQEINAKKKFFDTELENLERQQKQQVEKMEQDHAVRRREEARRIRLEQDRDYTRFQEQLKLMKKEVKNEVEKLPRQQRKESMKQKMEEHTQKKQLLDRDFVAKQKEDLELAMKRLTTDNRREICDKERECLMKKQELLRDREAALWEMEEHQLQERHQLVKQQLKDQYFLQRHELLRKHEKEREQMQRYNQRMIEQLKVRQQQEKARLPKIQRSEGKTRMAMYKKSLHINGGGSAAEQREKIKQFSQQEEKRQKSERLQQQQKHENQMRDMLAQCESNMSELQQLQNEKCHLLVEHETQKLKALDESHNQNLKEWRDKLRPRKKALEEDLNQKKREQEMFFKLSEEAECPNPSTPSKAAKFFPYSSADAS

CDC2L5 = CDC2L5 (Homo sapiens, UniProt Q14004); conditions: read-out: %Inh CDC2L5
Sequence of CDC2L5 (Q14004 whole entry): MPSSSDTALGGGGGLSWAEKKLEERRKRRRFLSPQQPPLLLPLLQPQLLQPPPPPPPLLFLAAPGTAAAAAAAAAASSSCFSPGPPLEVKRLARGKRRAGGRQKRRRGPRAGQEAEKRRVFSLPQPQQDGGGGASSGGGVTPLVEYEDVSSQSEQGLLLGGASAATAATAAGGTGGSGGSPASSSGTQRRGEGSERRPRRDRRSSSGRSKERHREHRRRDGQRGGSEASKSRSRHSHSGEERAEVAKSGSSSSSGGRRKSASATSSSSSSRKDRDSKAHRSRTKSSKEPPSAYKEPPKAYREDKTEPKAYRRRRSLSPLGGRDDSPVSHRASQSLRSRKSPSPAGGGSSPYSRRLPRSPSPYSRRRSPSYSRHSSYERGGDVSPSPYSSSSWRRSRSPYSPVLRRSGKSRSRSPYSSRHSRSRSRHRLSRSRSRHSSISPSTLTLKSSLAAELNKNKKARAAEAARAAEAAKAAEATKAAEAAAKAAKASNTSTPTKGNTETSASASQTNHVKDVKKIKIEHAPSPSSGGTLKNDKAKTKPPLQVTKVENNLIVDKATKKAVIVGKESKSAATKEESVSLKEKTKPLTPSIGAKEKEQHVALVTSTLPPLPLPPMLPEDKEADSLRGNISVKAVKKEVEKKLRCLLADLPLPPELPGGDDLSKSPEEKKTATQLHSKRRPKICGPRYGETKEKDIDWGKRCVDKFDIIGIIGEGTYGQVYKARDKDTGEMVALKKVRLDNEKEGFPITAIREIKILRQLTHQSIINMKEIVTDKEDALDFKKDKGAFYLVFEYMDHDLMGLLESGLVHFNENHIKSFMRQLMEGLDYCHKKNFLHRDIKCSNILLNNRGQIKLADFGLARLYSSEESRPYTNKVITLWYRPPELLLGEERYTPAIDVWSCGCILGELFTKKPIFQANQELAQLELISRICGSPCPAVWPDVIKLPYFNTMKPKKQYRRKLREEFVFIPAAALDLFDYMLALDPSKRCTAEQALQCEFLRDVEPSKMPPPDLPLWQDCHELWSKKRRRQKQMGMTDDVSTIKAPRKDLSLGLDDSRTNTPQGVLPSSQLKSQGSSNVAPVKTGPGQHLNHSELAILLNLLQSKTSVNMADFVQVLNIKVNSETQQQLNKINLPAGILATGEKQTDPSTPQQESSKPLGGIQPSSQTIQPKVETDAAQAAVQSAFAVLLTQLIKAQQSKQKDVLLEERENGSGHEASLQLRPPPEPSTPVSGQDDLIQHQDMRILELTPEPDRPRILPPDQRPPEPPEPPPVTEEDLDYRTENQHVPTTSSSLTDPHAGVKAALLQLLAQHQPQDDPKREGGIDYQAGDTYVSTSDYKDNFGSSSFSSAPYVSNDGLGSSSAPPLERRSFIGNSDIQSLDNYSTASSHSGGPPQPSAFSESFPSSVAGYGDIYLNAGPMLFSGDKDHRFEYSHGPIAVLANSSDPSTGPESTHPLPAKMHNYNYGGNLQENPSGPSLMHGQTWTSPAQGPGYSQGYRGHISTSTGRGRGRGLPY

ARK5 = target: T3, ARK5 (Homo sapiens, UniProt O60285); conditions: read-out: %Inh ARK5
T3 sequence (O60285 1-661): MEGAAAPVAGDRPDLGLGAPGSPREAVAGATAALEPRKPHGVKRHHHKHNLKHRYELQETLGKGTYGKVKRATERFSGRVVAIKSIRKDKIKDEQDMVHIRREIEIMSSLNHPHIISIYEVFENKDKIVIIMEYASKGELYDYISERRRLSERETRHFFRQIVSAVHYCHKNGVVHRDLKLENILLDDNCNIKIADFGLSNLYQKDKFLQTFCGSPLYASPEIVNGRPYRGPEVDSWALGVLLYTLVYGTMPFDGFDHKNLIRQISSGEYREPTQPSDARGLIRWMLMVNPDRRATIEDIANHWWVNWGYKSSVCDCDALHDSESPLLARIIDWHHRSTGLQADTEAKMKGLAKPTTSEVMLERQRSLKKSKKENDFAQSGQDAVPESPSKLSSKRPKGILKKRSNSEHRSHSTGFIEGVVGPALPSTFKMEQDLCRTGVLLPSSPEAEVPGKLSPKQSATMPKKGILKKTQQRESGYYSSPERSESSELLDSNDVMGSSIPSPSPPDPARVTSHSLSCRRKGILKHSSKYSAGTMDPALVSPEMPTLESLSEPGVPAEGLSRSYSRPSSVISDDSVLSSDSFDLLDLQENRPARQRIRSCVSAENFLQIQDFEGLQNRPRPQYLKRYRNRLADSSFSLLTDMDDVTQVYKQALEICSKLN

CLK3 = CLK3 (Homo sapiens, UniProt P49761); conditions: read-out: %Inh CLK3
Sequence of CLK3 (P49761 whole entry): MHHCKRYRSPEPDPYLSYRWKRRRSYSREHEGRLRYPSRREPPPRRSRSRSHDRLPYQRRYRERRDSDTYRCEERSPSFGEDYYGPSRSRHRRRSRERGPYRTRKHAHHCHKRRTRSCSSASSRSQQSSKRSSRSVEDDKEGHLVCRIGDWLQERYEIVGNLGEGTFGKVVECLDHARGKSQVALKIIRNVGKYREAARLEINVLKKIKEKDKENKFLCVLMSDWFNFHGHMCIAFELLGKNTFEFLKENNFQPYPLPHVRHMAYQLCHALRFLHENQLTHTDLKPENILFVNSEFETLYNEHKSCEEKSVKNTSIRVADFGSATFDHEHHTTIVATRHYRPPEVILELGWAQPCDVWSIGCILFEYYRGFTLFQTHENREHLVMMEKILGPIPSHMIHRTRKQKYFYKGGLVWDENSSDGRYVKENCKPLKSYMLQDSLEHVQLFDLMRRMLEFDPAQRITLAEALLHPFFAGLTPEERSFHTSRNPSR

## Cn1cc(-c2cnc(N)c3c(-c4ccc5c(c4)CCN5C(=O)Cc4ccccc4)csc23)cn1 [UNC10225012A]
CASK
  inhibition at 1 µM: 23%
ADCK3
  inhibition at 1 µM: 7%
GRK2
  inhibition at 1 µM: 0%
LOK
  inhibition at 1 µM: 98.9%
CDC2L5
  inhibition at 1 µM: 0%
ARK5
  inhibition at 1 µM: 3%
CLK3
  inhibition at 1 µM: 0%

## CS(=O)(=O)Cc1ccc(Nc2nccc(-c3c(-c4cccc(NC(=O)C5CCCCC5)c4)nn4ncccc34)n2)cc1 [UNC10225159A]
CASK
  inhibition at 1 µM: 34%
ADCK3
  inhibition at 1 µM: 24%
GRK2
  inhibition at 1 µM: 44%
LOK
  inhibition at 1 µM: 81%
CDC2L5
  inhibition at 1 µM: 30%
ARK5
  inhibition at 1 µM: 0%
CLK3
  inhibition at 1 µM: 24%

## Cc1ccc(NC(=O)Nc2cccc(C(F)(F)F)c2)cc1 [UNC10225187A]
CASK
  inhibition at 1 µM: 15%
ADCK3
  inhibition at 1 µM: 5%
GRK2
  inhibition at 1 µM: 0%
LOK
  inhibition at 1 µM: 0%
CDC2L5
  inhibition at 1 µM: 0%
ARK5
  inhibition at 1 µM: 0%
CLK3
  inhibition at 1 µM: 0%

## COc1cccc(OC)c1C(=O)Nc1cccc(-c2nn3ccccc3c2-c2ccnc(Nc3cccc(F)c3)n2)c1 [UNC10225310A]
CASK
  inhibition at 1 µM: 15%
ADCK3
  inhibition at 1 µM: 0%
GRK2
  inhibition at 1 µM: 0%
LOK
  inhibition at 1 µM: 90%
CDC2L5
  inhibition at 1 µM: 1%
ARK5
  inhibition at 1 µM: 0%
CLK3
  inhibition at 1 µM: 0%

## O=c1cc(N2CCOCC2)nc2n(Cc3cccc(Cl)c3Cl)c(C3CC3)nn12 [UNC10225469A]
CASK
  inhibition at 1 µM: 26%
ADCK3
  inhibition at 1 µM: 11%
GRK2
  inhibition at 1 µM: 0%
LOK
  inhibition at 1 µM: 0%
CDC2L5
  inhibition at 1 µM: 0%
ARK5
  inhibition at 1 µM: 0%
CLK3
  inhibition at 1 µM: 14%
